Read-outs that look alike come from different tables or passages of the source.
Legend:
Assay in all cases: Kinase panel
Type in all cases: biochemical
TrkA(h) = biological target: T1, TrkA(h) (Homo sapiens, UniProt P04629)
T1 construct: purchased Millipore KinaseProfiler

MKK7β(h) = biological target: T2, MKK7β(h) (Homo sapiens, UniProt O14733)
T2 construct: purchased Millipore KinaseProfiler
T2 sequence (O14733 1-419): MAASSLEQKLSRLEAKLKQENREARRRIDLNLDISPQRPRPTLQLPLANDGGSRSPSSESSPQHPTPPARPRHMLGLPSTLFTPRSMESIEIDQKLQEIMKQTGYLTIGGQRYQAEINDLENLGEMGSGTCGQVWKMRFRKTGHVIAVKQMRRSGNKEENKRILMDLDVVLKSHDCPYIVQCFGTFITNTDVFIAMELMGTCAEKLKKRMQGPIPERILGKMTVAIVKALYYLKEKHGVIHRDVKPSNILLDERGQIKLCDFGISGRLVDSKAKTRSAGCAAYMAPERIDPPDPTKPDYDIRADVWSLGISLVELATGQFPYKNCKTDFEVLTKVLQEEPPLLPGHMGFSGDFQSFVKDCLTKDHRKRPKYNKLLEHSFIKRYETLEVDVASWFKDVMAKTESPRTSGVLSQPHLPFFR

PKCβI(h) = biological target: T3, PKCβI(h) (Homo sapiens, UniProt P05771)
T3 construct: purchased Millipore KinaseProfiler

PAK3(h) = biological target: T4, PAK3(h) (Homo sapiens, UniProt O75914)
T4 construct: purchased Millipore KinaseProfiler
T4 sequence (O75914 whole entry): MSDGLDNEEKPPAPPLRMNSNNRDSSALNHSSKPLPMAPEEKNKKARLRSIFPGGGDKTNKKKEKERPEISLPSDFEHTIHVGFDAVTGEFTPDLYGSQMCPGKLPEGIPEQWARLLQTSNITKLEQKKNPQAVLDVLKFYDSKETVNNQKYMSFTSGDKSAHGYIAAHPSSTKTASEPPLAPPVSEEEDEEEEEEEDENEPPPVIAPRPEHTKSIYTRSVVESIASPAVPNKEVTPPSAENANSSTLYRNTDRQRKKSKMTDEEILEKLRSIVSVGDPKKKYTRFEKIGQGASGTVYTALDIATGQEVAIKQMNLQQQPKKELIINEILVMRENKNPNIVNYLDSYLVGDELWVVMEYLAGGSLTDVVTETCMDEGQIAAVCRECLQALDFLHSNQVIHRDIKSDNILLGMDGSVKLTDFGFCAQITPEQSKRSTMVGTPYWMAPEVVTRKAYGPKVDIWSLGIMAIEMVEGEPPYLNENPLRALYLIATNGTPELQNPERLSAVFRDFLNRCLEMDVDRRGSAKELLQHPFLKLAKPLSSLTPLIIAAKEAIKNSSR

NLK(h) = biological target: T5, NLK(h) (Homo sapiens, UniProt Q9UBE8)
T5 construct: purchased Millipore KinaseProfiler
T5 sequence (Q9UBE8 1-527): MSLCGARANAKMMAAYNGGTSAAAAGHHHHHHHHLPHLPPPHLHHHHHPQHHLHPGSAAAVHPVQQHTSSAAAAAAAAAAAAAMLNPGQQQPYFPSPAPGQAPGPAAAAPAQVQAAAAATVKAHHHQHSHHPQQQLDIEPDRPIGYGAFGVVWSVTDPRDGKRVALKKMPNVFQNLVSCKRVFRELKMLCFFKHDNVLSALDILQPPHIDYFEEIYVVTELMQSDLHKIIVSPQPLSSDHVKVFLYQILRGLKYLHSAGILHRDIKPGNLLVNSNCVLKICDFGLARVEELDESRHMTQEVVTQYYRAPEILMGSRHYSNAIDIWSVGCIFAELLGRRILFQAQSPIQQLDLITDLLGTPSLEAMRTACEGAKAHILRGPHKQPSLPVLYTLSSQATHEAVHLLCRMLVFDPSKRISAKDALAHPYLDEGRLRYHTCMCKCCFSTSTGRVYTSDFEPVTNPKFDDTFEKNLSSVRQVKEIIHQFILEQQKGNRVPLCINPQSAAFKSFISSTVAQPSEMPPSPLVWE

ErbB4(h) = biological target: T6, ErbB4(h) (Homo sapiens, UniProt Q15303)
T6 construct: purchased Millipore KinaseProfiler
T6 sequence (Q15303 26-1308): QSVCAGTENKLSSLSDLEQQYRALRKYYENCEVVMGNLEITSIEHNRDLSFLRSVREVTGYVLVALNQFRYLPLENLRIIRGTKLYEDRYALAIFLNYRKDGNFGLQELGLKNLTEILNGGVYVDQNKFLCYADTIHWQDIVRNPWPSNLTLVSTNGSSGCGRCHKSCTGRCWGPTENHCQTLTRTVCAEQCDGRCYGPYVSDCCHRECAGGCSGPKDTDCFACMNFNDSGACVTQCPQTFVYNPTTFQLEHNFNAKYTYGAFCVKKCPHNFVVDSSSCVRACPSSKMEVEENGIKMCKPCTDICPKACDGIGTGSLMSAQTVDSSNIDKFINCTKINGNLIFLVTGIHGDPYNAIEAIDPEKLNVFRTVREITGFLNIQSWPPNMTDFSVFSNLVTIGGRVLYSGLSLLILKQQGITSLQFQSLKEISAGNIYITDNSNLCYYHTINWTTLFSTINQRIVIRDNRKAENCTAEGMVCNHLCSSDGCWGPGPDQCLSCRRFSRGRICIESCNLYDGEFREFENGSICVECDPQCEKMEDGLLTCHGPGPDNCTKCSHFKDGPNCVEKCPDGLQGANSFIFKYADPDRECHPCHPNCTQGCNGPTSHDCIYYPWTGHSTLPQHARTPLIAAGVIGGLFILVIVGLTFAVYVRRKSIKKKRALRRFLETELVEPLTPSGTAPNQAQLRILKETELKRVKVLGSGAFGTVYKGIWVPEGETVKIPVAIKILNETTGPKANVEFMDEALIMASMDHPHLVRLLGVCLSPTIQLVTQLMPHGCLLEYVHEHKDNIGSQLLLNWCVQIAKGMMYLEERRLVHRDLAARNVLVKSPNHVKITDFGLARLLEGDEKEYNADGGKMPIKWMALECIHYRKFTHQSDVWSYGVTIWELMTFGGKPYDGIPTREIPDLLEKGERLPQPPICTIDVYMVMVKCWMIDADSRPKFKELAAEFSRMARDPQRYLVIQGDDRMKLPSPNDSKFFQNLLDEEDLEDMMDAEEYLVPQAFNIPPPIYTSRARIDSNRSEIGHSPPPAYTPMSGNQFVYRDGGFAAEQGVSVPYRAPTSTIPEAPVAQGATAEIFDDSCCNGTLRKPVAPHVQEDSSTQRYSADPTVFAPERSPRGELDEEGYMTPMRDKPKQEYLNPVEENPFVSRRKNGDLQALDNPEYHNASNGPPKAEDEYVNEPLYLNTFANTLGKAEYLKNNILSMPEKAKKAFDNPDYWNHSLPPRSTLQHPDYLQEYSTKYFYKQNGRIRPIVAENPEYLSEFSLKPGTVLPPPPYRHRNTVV

MSK2(h) = biological target: T7, MSK2(h) (Homo sapiens, UniProt O75676)
T7 construct: purchased Millipore KinaseProfiler
T7 sequence (O75676 whole entry): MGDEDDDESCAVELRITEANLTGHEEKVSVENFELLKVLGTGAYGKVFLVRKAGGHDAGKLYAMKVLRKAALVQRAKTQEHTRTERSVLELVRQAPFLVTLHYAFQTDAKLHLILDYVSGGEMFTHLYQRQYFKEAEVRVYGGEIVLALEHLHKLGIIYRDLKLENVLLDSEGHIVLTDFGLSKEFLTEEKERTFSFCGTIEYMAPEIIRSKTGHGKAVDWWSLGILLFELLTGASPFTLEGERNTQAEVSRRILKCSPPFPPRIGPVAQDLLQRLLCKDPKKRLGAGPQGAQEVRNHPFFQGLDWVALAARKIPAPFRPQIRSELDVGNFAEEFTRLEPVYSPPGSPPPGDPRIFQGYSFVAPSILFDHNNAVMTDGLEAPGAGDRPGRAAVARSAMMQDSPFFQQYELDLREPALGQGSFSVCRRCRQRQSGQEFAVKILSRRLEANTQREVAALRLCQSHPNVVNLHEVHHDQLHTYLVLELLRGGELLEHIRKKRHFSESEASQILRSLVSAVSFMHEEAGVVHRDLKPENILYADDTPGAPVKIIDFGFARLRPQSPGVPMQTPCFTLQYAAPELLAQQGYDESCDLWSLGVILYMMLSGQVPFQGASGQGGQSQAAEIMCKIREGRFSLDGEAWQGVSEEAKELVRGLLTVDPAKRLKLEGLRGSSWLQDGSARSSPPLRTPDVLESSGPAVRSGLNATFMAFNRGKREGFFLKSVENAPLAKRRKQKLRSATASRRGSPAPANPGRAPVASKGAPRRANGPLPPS

MKK4(m) = biological target: T8, MKK4(m) (Mus musculus, UniProt P47809)
T8 construct: purchased Millipore KinaseProfiler
T8 sequence (P47809 2-397 limits assumed): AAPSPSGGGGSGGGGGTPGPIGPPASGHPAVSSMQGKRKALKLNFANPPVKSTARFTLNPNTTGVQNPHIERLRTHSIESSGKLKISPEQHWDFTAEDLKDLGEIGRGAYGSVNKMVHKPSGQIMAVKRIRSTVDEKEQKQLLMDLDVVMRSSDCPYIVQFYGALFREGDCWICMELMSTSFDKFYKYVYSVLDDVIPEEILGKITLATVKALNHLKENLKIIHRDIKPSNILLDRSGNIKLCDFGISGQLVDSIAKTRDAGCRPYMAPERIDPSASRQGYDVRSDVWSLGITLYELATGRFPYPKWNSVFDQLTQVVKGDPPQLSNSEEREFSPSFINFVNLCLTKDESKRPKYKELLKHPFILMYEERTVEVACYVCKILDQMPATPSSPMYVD

HIPK2(h) = biological target: T9, HIPK2(h) (Homo sapiens, UniProt Q9H2X6)
T9 construct: purchased Millipore KinaseProfiler
T9 sequence (Q9H2X6 whole entry): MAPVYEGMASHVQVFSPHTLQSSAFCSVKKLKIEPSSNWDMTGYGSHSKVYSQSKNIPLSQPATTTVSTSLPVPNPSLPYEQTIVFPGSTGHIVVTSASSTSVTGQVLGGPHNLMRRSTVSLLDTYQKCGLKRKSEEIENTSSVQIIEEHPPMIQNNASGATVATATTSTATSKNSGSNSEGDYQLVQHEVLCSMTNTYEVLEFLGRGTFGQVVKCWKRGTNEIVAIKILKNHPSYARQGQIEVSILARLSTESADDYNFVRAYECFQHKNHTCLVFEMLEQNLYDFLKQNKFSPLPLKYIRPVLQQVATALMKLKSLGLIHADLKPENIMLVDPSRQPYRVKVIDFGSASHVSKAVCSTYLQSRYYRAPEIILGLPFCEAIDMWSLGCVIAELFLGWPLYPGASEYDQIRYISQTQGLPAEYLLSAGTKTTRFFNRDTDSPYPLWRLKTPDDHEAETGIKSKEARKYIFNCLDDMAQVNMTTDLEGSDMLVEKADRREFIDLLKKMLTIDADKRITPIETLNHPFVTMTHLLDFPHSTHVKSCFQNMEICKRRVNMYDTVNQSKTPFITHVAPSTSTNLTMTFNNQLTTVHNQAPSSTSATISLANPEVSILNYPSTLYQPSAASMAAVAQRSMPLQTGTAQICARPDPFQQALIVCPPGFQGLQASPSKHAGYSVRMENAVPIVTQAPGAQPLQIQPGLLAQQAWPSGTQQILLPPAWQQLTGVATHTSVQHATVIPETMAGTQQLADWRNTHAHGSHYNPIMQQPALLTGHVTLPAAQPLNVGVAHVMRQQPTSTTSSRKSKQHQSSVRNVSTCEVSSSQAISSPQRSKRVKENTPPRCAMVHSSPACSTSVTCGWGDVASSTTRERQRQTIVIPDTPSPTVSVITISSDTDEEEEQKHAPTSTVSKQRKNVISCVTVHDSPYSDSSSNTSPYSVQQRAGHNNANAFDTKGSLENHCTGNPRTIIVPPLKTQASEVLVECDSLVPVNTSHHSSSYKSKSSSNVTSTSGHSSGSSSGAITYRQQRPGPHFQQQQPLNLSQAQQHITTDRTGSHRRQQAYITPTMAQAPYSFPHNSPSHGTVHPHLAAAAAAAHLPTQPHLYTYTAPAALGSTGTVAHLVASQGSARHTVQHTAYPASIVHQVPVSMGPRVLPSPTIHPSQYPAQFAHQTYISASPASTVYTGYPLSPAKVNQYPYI

EphA3(h) = biological target: T10, EphA3(h) (Homo sapiens, UniProt P29320)
T10 construct: purchased Millipore KinaseProfiler
T10 sequence (P29320 21-983): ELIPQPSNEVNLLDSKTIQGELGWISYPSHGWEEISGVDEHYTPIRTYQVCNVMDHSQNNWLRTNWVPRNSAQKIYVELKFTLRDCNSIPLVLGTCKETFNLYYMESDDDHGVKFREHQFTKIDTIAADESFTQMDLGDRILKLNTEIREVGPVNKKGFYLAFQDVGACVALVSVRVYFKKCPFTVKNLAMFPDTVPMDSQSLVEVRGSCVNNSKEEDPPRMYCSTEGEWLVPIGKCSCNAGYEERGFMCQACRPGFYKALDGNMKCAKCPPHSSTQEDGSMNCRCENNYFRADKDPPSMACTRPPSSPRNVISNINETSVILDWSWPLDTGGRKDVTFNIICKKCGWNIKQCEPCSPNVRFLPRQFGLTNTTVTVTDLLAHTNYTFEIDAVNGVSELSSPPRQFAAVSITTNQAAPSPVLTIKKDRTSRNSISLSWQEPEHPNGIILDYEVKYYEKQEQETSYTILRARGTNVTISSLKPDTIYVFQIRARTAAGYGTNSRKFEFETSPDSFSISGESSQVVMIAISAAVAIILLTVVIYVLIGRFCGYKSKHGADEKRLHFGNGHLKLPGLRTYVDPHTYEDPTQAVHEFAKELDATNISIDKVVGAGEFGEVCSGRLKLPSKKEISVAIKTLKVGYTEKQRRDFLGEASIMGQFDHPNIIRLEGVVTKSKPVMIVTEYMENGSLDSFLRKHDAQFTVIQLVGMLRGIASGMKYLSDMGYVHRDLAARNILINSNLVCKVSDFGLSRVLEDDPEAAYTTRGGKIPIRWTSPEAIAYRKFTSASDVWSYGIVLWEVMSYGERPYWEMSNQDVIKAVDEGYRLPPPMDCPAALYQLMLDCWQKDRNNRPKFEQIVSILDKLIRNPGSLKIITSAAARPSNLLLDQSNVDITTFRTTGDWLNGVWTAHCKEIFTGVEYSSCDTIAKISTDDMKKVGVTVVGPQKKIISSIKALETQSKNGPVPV

Abl(m) = biological target: T11, Abl(m) (Mus musculus, UniProt P00520)
T11 construct: purchased Millipore KinaseProfiler
T11 sequence (P00520 27-1123 limits assumed): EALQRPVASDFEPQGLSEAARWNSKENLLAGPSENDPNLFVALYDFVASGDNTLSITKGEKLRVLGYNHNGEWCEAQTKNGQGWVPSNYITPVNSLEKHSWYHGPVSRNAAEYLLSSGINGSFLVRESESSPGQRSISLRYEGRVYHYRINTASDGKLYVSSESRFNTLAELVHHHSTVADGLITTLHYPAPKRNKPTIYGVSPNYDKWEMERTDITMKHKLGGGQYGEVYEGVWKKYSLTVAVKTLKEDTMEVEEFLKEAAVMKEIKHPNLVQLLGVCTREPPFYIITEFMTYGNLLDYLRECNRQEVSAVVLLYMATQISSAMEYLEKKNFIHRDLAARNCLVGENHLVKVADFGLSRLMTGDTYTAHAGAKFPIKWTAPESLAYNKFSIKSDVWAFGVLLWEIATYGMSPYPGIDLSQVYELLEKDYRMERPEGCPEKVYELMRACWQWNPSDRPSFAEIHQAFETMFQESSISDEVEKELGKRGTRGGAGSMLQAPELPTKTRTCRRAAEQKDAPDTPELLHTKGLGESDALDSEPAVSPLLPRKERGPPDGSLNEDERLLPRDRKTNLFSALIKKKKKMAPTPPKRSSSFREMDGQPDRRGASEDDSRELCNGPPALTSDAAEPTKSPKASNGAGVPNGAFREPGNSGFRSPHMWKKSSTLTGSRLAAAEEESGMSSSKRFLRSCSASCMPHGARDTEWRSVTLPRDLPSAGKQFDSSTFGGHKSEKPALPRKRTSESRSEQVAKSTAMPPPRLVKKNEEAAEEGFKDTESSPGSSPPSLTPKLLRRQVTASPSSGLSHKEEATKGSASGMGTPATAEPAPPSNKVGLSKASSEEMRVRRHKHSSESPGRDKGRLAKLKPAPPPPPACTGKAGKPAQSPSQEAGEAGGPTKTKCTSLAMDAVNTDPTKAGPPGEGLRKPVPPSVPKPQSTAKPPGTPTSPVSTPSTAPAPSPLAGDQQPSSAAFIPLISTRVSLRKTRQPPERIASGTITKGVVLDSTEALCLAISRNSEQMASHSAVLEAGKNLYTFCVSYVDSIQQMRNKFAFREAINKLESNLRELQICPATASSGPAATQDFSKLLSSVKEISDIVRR

`Cn1ncc(Cl)c1-c1cc(C(=O)N[C@H](CN)Cc2cccc(F)c2)sc1Cl` [GSK2110183] showed an inhibition at 0.5 µM (TrkA(h)) of 9%, an inhibition at 10 µM (TrkA(h)) of 69% and an inhibition at 0.5 µM (MKK7β(h)) of 12%. The inhibition at 10 µM (MKK7β(h)) was 28%, the inhibition at 0.5 µM (PKCβI(h)) was 61% and the inhibition at 10 µM (PKCβI(h)) was 96%. The inhibition at 0.5 µM (PAK3(h)) was -2%, the inhibition at 10 µM (PAK3(h)) was 62% and the inhibition at 0.5 µM (NLK(h)) was -8%. It also gave an inhibition at 10 µM (NLK(h)) of 32%, an inhibition at 0.5 µM (ErbB4(h)) of -4% and an inhibition at 10 µM (ErbB4(h)) of 4%. For the same compound, the inhibition at 0.5 µM (MSK2(h)) was 85%, the inhibition at 10 µM (MSK2(h)) was 97% and the inhibition at 0.5 µM (MKK4(m)) was 25%. It also gave an inhibition at 10 µM (MKK4(m)) of 57%, an inhibition at 0.5 µM (HIPK2(h)) of 25% and an inhibition at 10 µM (HIPK2(h)) of 87%. The inhibition at 0.5 µM (EphA3(h)) was 1%, the inhibition at 10 µM (EphA3(h)) was 11% and the inhibition at 0.5 µM (Abl(m)) was 8%. It also gave an inhibition at 10 µM (Abl(m)) of -5%.
For `Cn1ncc(Cl)c1-c1cc(C(=O)N[C@H](CN)Cc2ccc(F)c(F)c2)oc1Cl` [GSK2141795], the inhibition at 0.5 µM (TrkA(h); 0.5 µM, read-out: % Inhibition) was -13%, the inhibition at 10 µM (TrkA(h); 10 µM, read-out: % Inhibition) was 63% and the inhibition at 0.5 µM (MKK7β(h); 0.5 µM, read-out: % Inhibition) was -13%. For the same compound, the inhibition at 10 µM (MKK7β(h); 10 µM, read-out: % Inhibition) was -30%, the inhibition at 0.5 µM (PKCβI(h); 0.5 µM, read-out: % Inhibition) was 74% and the inhibition at 10 µM (PKCβI(h); 10 µM, read-out: % Inhibition) was 97%. The inhibition at 0.5 µM (PAK3(h); 0.5 µM, read-out: % Inhibition) was 6%, the inhibition at 10 µM (PAK3(h); 10 µM, read-out: % Inhibition) was 28% and the inhibition at 0.5 µM (NLK(h); 0.5 µM, read-out: % Inhibition) was 4%. For the same compound, the inhibition at 10 µM (NLK(h); 10 µM, read-out: % Inhibition) was 46%, the inhibition at 0.5 µM (ErbB4(h); 0.5 µM, read-out: % Inhibition) was -11% and the inhibition at 10 µM (ErbB4(h); 10 µM, read-out: % Inhibition) was -5%. The inhibition at 0.5 µM (MSK2(h); 0.5 µM, read-out: % Inhibition) was 98%, the inhibition at 10 µM (MSK2(h); 10 µM, read-out: % Inhibition) was 102% and the inhibition at 0.5 µM (MKK4(m); 0.5 µM, read-out: % Inhibition) was 8%. For the same compound, the inhibition at 10 µM (MKK4(m); 10 µM, read-out: % Inhibition) was 36%, the inhibition at 0.5 µM (HIPK2(h); 0.5 µM, read-out: % Inhibition) was 26% and the inhibition at 10 µM (HIPK2(h); 10 µM, read-out: % Inhibition) was 83%. For the same compound, the inhibition at 0.5 µM (EphA3(h); 0.5 µM, read-out: % Inhibition) was -7%, the inhibition at 10 µM (EphA3(h); 10 µM, read-out: % Inhibition) was 21% and the inhibition at 0.5 µM (Abl(m); 0.5 µM, read-out: % Inhibition) was 1%. For the same compound, the inhibition at 10 µM (Abl(m); 10 µM, read-out: % Inhibition) was 7%.
